This note sets out measurements from patent US10870647B2, “Imidazopyridine derivative, method for preparing same, and pharmaceutical composition containing same as active ingredient for preventing or treating cancer” (DAEGU-GYEONGBUK MEDICAL INNOVATION FOUNDATION, priority 2016, dated 2020).

Where two headings read alike, the source gives them in different places.

Test in all cases: Kinase selectivity, scanMAX Kinase assay panel (DiscoverX), % control at 1 uM
Common to all, as to format: binding

Assay [1] concerns the target T1, scanMAX Kinase assay panel (Homo sapiens, UniProt O75582).
T1 construct: purchased DiscoverX
The settings on record: 1 uM, read-out: Percent Control (%). The gist of the method: (§1)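 1 uM cpd (DMSO) per kinase; % ctrl = [cpd − pos ctrl]/[neg ctrl − pos ctrl] × 100; hit if <35.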

Assay [2] concerns the target T2, scanMAX Kinase assay panel (Homo sapiens, UniProt P12931).
T2 construct: purchased DiscoverX
The settings on record: SRC; 1 uM; read-out: Percent Control (%). The method, boiled down:
as §1

The target in assay [3] is T3, scanMAX Kinase assay panel (Homo sapiens, UniProt P42336, I800L).
T3 construct: purchased DiscoverX
T3 sequence (P42336 whole entry I800L): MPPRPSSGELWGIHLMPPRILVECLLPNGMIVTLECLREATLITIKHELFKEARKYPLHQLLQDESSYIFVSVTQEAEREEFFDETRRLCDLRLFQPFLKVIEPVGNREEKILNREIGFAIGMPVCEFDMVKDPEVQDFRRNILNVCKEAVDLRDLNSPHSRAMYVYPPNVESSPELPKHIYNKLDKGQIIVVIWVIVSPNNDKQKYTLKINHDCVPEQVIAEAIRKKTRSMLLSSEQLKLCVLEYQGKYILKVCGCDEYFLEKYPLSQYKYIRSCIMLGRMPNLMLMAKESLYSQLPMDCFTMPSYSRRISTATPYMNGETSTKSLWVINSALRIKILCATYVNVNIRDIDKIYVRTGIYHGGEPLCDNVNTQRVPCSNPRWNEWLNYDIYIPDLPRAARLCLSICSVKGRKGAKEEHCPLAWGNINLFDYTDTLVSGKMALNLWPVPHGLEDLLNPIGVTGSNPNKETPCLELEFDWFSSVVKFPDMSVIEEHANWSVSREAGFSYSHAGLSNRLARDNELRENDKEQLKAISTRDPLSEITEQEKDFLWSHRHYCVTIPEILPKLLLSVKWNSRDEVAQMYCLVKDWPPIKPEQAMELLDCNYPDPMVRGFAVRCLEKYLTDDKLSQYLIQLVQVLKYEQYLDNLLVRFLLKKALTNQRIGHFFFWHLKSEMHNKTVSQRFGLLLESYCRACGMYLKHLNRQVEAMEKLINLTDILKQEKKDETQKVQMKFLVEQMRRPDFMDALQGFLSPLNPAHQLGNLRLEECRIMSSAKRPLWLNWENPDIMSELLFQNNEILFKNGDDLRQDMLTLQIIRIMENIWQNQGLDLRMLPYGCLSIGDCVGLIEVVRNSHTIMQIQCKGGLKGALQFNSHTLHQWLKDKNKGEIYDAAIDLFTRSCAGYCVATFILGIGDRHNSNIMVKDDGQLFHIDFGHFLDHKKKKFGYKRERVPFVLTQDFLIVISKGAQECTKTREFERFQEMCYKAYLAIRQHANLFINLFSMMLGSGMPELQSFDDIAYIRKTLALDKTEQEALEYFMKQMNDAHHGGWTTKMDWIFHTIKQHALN
The settings on record: PIK3CA (I800L); 1 uM; read-out: Percent Control (%). The gist of the method:
as §1

Assay [4] concerns the target T4, scanMAX Kinase assay panel (Homo sapiens, UniProt Q15746).
T4 construct: purchased DiscoverX
The conditions noted are these: MYLK; 1 uM; read-out: Percent Control (%). The method, boiled down: as §1

Assay [5] concerns the target T5, scanMAX Kinase assay panel (Homo sapiens, UniProt Q15835).
T5 construct: purchased DiscoverX
T5 sequence (Q15835 1-563): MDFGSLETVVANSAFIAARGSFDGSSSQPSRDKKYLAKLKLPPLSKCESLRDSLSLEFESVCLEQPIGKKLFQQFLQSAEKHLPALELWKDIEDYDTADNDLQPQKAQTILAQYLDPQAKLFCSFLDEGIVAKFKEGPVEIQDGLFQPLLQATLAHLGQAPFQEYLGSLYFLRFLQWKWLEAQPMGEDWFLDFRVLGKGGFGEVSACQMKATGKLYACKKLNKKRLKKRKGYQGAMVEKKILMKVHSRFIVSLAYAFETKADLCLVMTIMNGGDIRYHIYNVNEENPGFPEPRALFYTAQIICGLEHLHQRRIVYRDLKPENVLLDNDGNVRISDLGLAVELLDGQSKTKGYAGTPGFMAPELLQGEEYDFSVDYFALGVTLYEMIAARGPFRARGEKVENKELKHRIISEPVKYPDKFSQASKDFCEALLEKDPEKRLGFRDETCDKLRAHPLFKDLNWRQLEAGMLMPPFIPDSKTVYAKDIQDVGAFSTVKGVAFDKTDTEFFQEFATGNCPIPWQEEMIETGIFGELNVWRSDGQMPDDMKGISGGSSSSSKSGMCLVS
The conditions noted are these: GRK1; 1 uM; read-out: Percent Control (%). The gist of the method:
as §1

Assay [6] addresses T6, scanMAX Kinase assay panel (Homo sapiens, UniProt Q96NX5).
T6 construct: purchased DiscoverX
The conditions noted are these: CAMK1G; 1 uM; read-out: Percent Control (%). The gist of the method: as §1

Assay [7] deals with T7, scanMAX Kinase assay panel (Homo sapiens, UniProt Q96PY6).
T7 construct: purchased DiscoverX
T7 sequence (Q96PY6 1-1258): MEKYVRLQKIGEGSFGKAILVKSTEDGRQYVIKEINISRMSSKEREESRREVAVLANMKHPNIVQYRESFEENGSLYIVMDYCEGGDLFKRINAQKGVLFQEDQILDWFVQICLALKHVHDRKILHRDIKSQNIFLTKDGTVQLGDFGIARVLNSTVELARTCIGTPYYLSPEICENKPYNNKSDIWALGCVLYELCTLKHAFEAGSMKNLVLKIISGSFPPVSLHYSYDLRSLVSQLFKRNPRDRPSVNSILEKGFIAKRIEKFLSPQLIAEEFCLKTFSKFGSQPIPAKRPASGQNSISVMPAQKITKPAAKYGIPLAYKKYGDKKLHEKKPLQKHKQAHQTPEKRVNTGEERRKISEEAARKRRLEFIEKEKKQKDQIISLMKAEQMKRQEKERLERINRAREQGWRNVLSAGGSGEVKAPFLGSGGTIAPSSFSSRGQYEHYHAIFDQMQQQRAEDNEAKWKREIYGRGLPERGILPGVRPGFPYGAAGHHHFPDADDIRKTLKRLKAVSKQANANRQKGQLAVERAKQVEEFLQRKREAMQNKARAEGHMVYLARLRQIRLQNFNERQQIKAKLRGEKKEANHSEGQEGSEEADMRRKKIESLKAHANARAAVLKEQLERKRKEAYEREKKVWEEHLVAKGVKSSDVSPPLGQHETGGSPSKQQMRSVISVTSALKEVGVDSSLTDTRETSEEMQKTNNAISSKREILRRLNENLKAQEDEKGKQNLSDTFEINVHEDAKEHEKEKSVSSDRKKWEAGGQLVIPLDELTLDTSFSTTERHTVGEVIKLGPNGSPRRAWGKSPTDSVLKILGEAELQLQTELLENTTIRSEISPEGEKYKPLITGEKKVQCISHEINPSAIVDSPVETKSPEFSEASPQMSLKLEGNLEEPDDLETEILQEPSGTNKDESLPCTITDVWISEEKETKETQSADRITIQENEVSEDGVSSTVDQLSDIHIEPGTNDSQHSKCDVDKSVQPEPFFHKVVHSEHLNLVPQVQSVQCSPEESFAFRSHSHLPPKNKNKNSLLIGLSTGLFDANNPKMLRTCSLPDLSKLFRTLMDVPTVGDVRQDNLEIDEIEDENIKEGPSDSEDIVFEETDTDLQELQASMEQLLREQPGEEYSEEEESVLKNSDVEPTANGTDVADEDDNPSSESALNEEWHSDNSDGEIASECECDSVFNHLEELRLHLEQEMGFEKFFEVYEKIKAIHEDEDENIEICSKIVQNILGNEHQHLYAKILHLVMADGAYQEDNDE
The settings on record: NEK1; 1 uM; read-out: Percent Control (%). The gist of the method:
as §1

In assay [8] the target is T8, scanMAX Kinase assay panel (Homo sapiens, UniProt Q9P2K8, S808G).
T8 construct: purchased DiscoverX
The conditions noted are these: GCN2 (Kin.Dom.2, S808G); 1 uM; read-out: Percent Control (%). The method, boiled down:
as §1

T6 sequence (Q96NX5 whole entry): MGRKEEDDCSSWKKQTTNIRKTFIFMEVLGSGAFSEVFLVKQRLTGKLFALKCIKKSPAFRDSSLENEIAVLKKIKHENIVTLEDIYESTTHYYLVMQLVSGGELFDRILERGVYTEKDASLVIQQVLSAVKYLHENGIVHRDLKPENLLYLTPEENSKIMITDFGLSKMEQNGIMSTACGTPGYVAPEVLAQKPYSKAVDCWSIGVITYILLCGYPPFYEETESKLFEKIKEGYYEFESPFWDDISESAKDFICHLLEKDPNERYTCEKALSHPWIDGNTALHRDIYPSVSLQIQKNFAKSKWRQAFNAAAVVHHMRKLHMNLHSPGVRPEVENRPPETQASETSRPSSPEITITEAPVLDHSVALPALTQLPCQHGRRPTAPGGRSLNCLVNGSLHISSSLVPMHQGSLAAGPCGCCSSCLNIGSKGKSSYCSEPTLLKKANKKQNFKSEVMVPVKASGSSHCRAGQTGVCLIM
T4 sequence (Q15746 whole entry): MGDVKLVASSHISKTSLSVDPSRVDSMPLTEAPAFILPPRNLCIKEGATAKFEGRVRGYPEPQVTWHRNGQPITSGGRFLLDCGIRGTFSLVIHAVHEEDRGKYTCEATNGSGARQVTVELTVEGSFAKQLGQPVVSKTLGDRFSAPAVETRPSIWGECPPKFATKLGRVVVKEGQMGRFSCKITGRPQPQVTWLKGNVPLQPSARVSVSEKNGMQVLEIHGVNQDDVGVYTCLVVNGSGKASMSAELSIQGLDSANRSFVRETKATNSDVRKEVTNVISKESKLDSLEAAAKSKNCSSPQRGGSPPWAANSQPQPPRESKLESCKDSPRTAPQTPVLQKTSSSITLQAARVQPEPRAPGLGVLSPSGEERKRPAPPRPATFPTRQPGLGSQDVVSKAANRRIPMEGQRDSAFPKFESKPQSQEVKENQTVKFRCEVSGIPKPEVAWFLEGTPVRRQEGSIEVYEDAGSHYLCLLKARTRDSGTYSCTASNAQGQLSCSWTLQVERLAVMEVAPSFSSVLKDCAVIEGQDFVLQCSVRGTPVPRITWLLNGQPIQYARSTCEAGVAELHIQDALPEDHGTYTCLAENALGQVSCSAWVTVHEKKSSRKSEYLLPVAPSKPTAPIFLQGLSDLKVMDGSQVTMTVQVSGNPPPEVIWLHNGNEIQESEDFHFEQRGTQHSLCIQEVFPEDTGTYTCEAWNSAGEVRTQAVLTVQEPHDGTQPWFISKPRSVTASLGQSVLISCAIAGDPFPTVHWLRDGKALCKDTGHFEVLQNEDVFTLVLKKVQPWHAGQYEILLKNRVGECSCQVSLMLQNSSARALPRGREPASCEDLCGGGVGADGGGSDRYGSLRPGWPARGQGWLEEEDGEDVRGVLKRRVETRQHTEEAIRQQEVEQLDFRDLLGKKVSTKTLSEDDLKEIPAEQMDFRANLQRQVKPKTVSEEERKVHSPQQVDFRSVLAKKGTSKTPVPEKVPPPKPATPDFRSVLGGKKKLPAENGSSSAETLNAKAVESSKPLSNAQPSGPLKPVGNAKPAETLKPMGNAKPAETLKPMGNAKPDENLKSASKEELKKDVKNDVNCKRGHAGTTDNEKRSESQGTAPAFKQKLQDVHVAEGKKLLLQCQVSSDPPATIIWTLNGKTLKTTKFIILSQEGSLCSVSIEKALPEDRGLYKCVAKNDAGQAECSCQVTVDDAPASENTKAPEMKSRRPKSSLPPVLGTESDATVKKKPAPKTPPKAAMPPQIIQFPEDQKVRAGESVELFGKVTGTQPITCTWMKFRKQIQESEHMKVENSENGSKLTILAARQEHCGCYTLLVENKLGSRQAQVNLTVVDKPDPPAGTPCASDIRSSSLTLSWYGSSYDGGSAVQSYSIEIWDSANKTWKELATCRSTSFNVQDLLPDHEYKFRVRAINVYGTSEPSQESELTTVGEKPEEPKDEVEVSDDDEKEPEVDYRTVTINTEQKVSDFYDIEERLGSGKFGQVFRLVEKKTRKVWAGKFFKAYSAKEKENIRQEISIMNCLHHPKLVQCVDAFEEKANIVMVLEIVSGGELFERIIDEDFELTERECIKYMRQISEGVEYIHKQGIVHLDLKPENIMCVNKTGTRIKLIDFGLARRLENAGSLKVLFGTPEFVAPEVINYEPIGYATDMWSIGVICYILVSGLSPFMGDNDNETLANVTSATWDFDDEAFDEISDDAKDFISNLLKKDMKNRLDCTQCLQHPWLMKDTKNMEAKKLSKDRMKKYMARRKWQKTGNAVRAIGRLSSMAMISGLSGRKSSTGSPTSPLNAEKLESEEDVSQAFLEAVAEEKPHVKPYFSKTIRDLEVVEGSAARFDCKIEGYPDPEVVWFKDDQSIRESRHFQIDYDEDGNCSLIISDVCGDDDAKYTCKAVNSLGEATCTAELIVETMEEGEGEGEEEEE
T1 sequence (O75582 whole entry): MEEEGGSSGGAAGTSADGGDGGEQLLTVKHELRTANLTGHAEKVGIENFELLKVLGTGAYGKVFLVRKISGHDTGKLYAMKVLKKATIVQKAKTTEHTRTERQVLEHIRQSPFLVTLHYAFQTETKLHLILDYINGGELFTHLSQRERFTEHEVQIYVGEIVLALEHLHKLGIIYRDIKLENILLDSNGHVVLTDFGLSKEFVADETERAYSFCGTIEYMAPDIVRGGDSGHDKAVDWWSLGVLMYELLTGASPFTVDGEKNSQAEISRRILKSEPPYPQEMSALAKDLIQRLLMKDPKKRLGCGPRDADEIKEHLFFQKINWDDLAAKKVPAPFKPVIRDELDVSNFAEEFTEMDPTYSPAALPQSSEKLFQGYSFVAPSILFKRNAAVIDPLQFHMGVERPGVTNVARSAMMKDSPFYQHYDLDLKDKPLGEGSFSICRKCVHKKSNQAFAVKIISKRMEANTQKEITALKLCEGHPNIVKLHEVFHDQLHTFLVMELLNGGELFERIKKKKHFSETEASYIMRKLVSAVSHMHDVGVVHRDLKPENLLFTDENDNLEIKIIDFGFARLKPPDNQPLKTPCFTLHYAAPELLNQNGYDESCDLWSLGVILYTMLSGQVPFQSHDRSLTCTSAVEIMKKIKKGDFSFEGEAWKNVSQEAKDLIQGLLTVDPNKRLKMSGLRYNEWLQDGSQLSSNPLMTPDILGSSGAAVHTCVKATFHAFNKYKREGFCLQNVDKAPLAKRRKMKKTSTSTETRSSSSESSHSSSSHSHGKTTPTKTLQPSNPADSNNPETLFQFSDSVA
T2 sequence (P12931 whole entry): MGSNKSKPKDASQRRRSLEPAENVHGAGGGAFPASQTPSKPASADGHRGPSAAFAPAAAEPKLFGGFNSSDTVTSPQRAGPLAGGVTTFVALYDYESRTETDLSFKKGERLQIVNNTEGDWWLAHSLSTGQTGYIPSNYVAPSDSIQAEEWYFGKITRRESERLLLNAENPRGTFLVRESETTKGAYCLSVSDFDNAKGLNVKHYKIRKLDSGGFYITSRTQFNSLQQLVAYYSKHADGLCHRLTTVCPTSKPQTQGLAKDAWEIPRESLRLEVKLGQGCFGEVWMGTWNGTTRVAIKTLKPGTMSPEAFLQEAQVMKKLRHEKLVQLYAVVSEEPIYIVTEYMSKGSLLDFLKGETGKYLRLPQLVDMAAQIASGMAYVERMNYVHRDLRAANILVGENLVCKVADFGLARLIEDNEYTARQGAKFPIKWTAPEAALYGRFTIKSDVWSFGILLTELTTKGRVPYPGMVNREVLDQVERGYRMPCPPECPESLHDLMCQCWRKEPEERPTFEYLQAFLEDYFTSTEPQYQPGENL

In the case of `Cc1ccc(C(=O)Nc2ccc(CN3CCN(C)CC3)c(C(F)(F)F)c2)cc1C#Cc1cnc2c(Nc3cnn(C)c3)cccn12` [Example 1, 4-methyl-3-((8-((1-methyl-1H-pyrazol-4-yl)amino)imidazo[1,2-a]pyridin-3-yl)ethynyl)-N-(4-((4-methylpiperazin-1-yl)methyl)-3-(trifluoromethyl)phenyl)benzamide], the remaining binding at 1 µM was determined as 38% in assay [1] (RPS6KA5 (Kin.Dom.1-N-terminal)); 69% in assay [1] (RPS6KA5 (Kin.Dom.2-C-terminal)); 0% in assay [2]; 80% in assay [3]; 64% in assay [4]; 65% in assay [5]. In addition, the remaining binding at 1 µM in assay [6] is 71%; in assay [7], 52%; in assay [8], 0%.
With `Cc1cn(-c2cc(NC(=O)c3ccc(C)c(C#Cc4cnc5c(Nc6cnn(C)c6)cccn45)c3)cc(C(F)(F)F)c2)cn1` [Example 12, 4-methyl-N-(3-(4-methyl-1H-imidazol-1-yl)-5-(trifluoromethyl)phenyl)-3-((8-((1-methyl-1H-pyrazol-4-yl)amino)imidazo[1,2-a]pyridin-3-yl)ethynyl)benzamide], the remaining binding at 1 µM in assay [1] (RPS6KA5 (Kin.Dom.1-N-terminal)) stood at 99%; in assay [1] (RPS6KA5 (Kin.Dom.2-C-terminal)), 94%; in assay [2], 1%; in assay [3], 75%; in assay [4], 100%; in assay [5], 85%. For the same compound, the values for the remaining binding at 1 µM in assay [6], in assay [7] and in assay [8] were 91%, 96% and 76%, respectively.
On to `Cc1ccc(NC(=O)C2(C(=O)Nc3ccc(F)cc3)CC2)cc1C#Cc1cnc2c(Nc3cnn(C(C)C)c3)cccn12` [Example 78], for which the remaining binding at 1 µM in assay [1] (RPS6KA5 (Kin.Dom.1-N-terminal)) is 100%; in assay [1] (RPS6KA5 (Kin.Dom.2-C-terminal)), 100%; in assay [2], 73%; in assay [3], 92%; in assay [4], 100%; in assay [5] it was 99%. The remaining binding at 1 µM in assay [6] is 100%; in assay [7], 100%; in assay [8], 89%.
